Measured values as given in patent publication US8143279B2, “Benzimidazole-carboxamide compounds as 5-HT4 receptor agonists” (Theravance, Inc., priority 2005, dated 2012).

Key:
[1] = Pharmacokinetic study in the rat; format: in vivo
Experimental: Assay 6: Pharmacokinetic Study in the Rat
Aqueous solution formulations of test compounds were prepared in 0.1% lactic acid at a pH of between about 5 and about 6. Male Sprague-Dawley rats (CD strain, Charles River Laboratories, Wilmington, Mass.) were dosed with test compounds via intravenous administration (IV) at a dose of 2.5 mg/kg or by oral gavage (PO) at a dose of 5 mg/kg. The dosing volume was 1 mL/kg for IV and 2 mL/kg for PO administration. Serial blood samples were collected from animals pre-dose, and at 2 (IV only), 5, 15, and 30 min, and at 1, 2, 4, 8, and 24 hours post-dose.
Standard pharmacokinetic parameters were assessed by non-compartmental analysis (Model 201 for IV and Model 200 for PO) using WinNonlin (Version 4.0.1, Pharsight, Mountain View, Calif.). The maximum in the curve of test compound concentration in blood plasma vs. time is denoted Cmax. The area under the concentration vs. time curve from the time of dosing to the last measurable concentration (AUC(0-t)) was calculated by the linear trapezoidal rule.

[2] = Experimental: Thermogravimetric analysis (TGA) was performed using a TA Instruments Model Q-500 module. Data were collected and analyzed using TA Instruments Thermal Advantage for Q Series™ software. A sample weighing about 2 mg was placed in an aluminum pan on a platinum cradle and scanned from ambient temperature to about 300° C. with a linear heating rate of 10° C./min. The balance and furnace chambers were purged with nitrogen during use.
[3] = Solid state stability assessment; format: physicochemical; conditions: three months at 40° C. and 75% RH, open glass vials
Experimental: Solid State Stability Assessment
Samples of the crystalline compound of Form I, prepared according to the process of Example 216, were stored in multiple open glass vials at 40° C. and 75% RH. At specific intervals, the contents of a representative vial was removed and analyzed by DSC, TGA, PXRD, and by HPLC for chemical purity.

[4] = Dynamic moisture sorption assessment; format: physicochemical; conditions: 25° C.
Experimental: Dynamic Moisture Sorption Assessment
Dynamic moisture sorption (DMS) assessment was performed at 25° C. using a VTI atmospheric microbalance, SGA-100 system (VTI Corp., Hialeah, Fla. 33016). A sample size of approximately 5-10 mg was used and the humidity was set at the ambient value at the start of the analysis. A typical DMS analysis consisted of three scans: ambient to 2% relative humidity (RH), 2% RH to 90% RH, 90% RH to 5% RH at a scan rate of 5% RH/step. The mass was measured every two minutes and the RH was changed to the next value (±5% RH) when the mass of the sample was stable to within 0.02% for 5 consecutive points.

[5] = male Sprague-Dawley rats, PO 5 mg/kg, blood plasma

Row | AUC(0-t) [1, 5] [ng·h/mL] | Cmax [1, 5] [ng/mL] | bioavailability ([1]; male, Sprague-Dawley, plasma, PO 5 mg/kg vs IV 2.5 mg/kg, read-out: oral bioavailability (F(%))) [%] | onset of degradation (TGA) [2] | change in the DSC or TGA thermograms and PXRD pattern after storage [3] | chemical purity of the stored sample (HPLC) [3] [%] | weight change (moisture sorption) ([4]; 2% to 90% RH) | weight change (moisture sorption) ([4]; critical humidity range of 40% to 75% RH) | Compound
1 | 1200 | 800 | ~75 | – | – | – | – | – | COC(=O)N1CCC(CN2CCC(CNC(=O)c3cccc4[nH]c(C(C)C)nc34)CC2)CC1 [Example 1, 4-(4-{[(2-isopropyl-1H-benzoimidazole-4-carbonyl)-amino]methyl}piperidin-1-ylmethyl)piperidine-1-carboxylic acid methyl ester]
2 | – | – | – | above 240 °C | no detectable change | 99.5 | less than 0.25% | less than 0.1% | COC(=O)N1CCC(CN2CCC(CNC(=O)c3cccc4[nH]c(C(C)C)nc34)CC2)CC1 [Form I, 4-(4-{[(2-isopropyl-1H-benzoimidazole-4-carbonyl)-amino]methyl}piperidin-1-ylmethyl)piperidine-1-carboxylic acid methyl ester]
